The record followed here is US20240190828A1, “Small Molecule Inhibitors of PBRM1-BD2” (The Medical College of Wisconsin, Inc., priority 2021, published 2024).

For one series, the target named is ASH1L (Homo sapiens (Human), UniProt Q9NR48). In words: DSF selectivity profiling. The series is classed as binding. On the procedure: (§1) Differential Scanning Fluorimetry (DSF). Bromodomain DSF Tm assays were performed using an Mx3005P (Stratagene) PCR detection system and low profile 96-well PCR plates (UltraFlux, Flat Top, SSI 3400-00S). […] The temperature was raised by 1° C./min from 25-95° C., and fluorescence readings were taken at each interval. Melting curves were analyzed using our online interactive fitting tool for thermofluor experiments (https://dsf-analysis.herokuapp.com/DSF-analysis) and plotted using GraphPad Prism.

In the next series the target is BRD2-BD2 (Homo sapiens (Human), UniProt P25440). In words: DSF selectivity profiling. The series is classed as binding. How it is done: as §1
The target in the next series is BRD3-BD1 (Homo sapiens (Human), UniProt Q15059). In words: DSF selectivity profiling. The series is classed as binding. How it is done: as §1
For another series, the target named is BRD3-BD2 (Homo sapiens (Human), UniProt Q15059). In words: DSF selectivity profiling. The series is classed as binding. On the procedure:
as §1

Another series deals with BRD4-BD1 (Homo sapiens (Human), UniProt O60885). In words: DSF selectivity profiling. The series is classed as binding. On the procedure: as §1
The target of another series is BRD4-BD2 (Homo sapiens (Human), UniProt O60885). In words: DSF selectivity profiling. The series is classed as binding. On the procedure: as §1
The target of a further series is BRD7 (Homo sapiens (Human), UniProt Q9NPI1). In words: DSF selectivity profiling. The series is classed as binding. On the procedure: as §1
Another series addresses BRDT-BD1 (Homo sapiens (Human), UniProt Q58F21). In words: DSF selectivity profiling. The series is classed as binding. How it is done:
as §1

In a further series the target is CECR2 (Homo sapiens (Human), UniProt Q9BXF3). In words: DSF selectivity profiling. The series is classed as binding. How it is done: as §1
The target in a further series is CREBBP (Homo sapiens (Human), UniProt Q92793). In words: DSF selectivity profiling. The series is classed as binding. How it is done: as §1
The next series concerns the target PCAF (Homo sapiens (Human), UniProt Q92831). In words: DSF selectivity profiling. The series is classed as binding. How it is done:
as §1

For series [1], the target named is T1, SMARCA2 (Homo sapiens (Human), UniProt P51531). In words: DSF selectivity profiling. The series is classed as binding. On the procedure: as §1
The target in another series is TRIM33A (Homo sapiens (Human), UniProt Q9UPN9). In words: DSF selectivity profiling. The series is classed as binding. How it is done:
as §1

The next series deals with p300 (Homo sapiens (Human), UniProt Q09472). In words: DSF selectivity profiling. The series is classed as binding. How it is done:
as §1

In the next series the test system is HEK293T cells. In words: Cell viability assay (CellTiter-Glo). The series is classed as cell-based, human. The conditions noted are these: dose curve. How it is done:
(§2) Cell Viability Assays. Cells were seeded in a 96-well plate and incubated for 12-24 h prior to initial treatment. The number of cells per well was chosen empirically based on cell growth rates (LNCaP-5,000 cells/well, PC3 and RWPE-1-3,000 cells per well, HEK293T-1,000 cells/well). Cells were treated with either DMSO control or serial dilutions of inhibitors and media with compound was refreshed every 48 h.
A general note: Cellular ATP, detected with luciferase, serves as a proxy for viable cell number.

Another series has as its system PC3 cells. In words: Cell viability assay (CellTiter-Glo). The series is classed as cell-based, human. Particulars: 10, 1 and 0.1 μM. On the procedure: as §2
A further series concerns RWPE-1 cells. In words: Cell viability assay (CellTiter-Glo). Particulars: 10, 1 and 0.1 μM. The series is classed as cell-based, human. On the procedure:
as §2

Series [2] addresses T2, PBRM1-BD2 (Homo sapiens (Human), UniProt Q86U86). In words: biochemical. The series is classed as binding. How it is done: Protein-detected NMR-based fragment screening has the advantage of providing information about both binding affinity and the amino acid residues involved in binding.
NMR spectroscopy. Automated NMR data collection was performed on ^15N-labeled PBRM1-BD2 (50 μM) by using ^1H,^15N SOFAST-HMQC experiments. […] The total time for screening 85 or 82 samples each containing 12 fragments or DMSO by ^1H,^15N SOFAST-HMQC was 46 h (˜32 min/sample). […] All NMR data were processed using NMRPipe^4 in NMRbox.^5 Spectra were processed by using in-house automated Python scripts in NMRPipe,^4 and chemical shifts perturbation were analyzed using SPARKY.^6 Total ^1H/^15N chemical shift perturbations and equilibrium dissociation constants (Kd) were calculated as reported.^2

Series [3] deals with T2, PBRM1-BD2. In words: AlphaScreen competition assay, His6-tagged PBRM1-BD2 and biotinylated H3K14ac peptide. The series is classed as binding. The conditions noted are these: 0.2 μM His6-PBRM1-BD2, 0.1 μM biotinylated H3K14ac peptide. In general terms: Alpha assays give light when donor and acceptor beads are brought close together.
Series [4] has as its target T2, PBRM1-BD2. In words: biochemical. The series is classed as binding. Particulars: read-out: PBRM1-BD2 ΔTm, DSF, 10 μM protein, 100 μM inhibitor, vs apoprotein. On the procedure: DSF measures protein unfolding by monitoring the fluorescence of the SYPRO Orange dye as a function of temperature; positive thermal shifts indicate ligand binding induced stabilization of the protein.
as §1

Series [5] addresses T2, PBRM1-BD2. Particulars: read-out: Kd PBRM1-BD2; ITC; NB = did not bind (heat below 0.1 μcal per second).
Procedure: (§3) Binding affinities of inhibitors towards PBRM1-BD2, PBRM1-BD5, SMARCA2, SMARCA4, and ASH1L were determined using a VP-ITC instrument (MicroCal). […] Protein concentrations were determined via the method of Bradford.^1 The buffer used for all ITC experiments consisted of 50 mM HEPES (pH 7.5 at 20° C.), 500 mM NaCl, 5% v/v glycerol, and 1% v/v DMSO; except for experiments involving PBRM1-BD2 whose buffer consisted of 100 mM Na2PO4 (pH 7.5 at 20° C.), 100 mM NaCl, 5% v/v glycerol, and 1% v/v DMSO. Kd values were determined by least-squares fitting to the raw data using Origin (OriginLab).
The next series addresses PBRM1-BD5 (Homo sapiens (Human), UniProt Q86U86). Particulars: read-out: Kd PBRM1-BD5; ITC; NB = did not bind.
Series [6] is described as follows: Solubility at concentrations tested in the AlphaScreen assay.
Procedure: AlphaScreen. […] All reagents were diluted in Epigenetic Buffer (5×), 2 μM TCEP, and 0.5% v/v Tween-20. The assay used a final volume of 40 μL. Stock solutions of inhibitors in DMSO were made at eight different concentrations (100 mM, 10 mM, 1 mM, 300 μM, 100 μM, 30 μM, 10 μM, 3 μM). 0.4 μL of inhibitor DMSO stocks were further diluted to 10 μL in the buffer. […] The mixture (40 μL) was further incubated for 1 h in a dark room and the luminescence was read on a BioTek Cytation5 Imaging Reader using an AlphaScreen detection filter cube. Data was plotted in GraphPad Prism using non-linear regression dose-response three variable slopes.
The target in series [7] is T3, SMARCA4 (Homo sapiens (Human), UniProt P51532). In words: DSF selectivity profiling. The series is classed as binding. On the procedure: as §1
The target in series [8] is T1, SMARCA2. In words: Isothermal titration calorimetry (ITC). The series is classed as binding. The conditions noted are these: NB = did not bind. (Isothermal titration calorimetry measures the heat released or taken up as one component is titrated into another.)
Procedure: as §3
Series [9] has as its target T3, SMARCA4. In words: Isothermal titration calorimetry (ITC). The series is classed as binding. Particulars: NB = did not bind.
Procedure: as §3
Series [10] deals with other tested bromodomains. In words: DSF selectivity panel of 22 bromodomains. The series is classed as binding, human. Particulars: bromodomains other than PBRM1-BD2, -BD3, -BD5. How it is done: as §1

Like-named read-outs stand apart in the source and are kept apart here.

T2 sequence (Q86U86 177-287): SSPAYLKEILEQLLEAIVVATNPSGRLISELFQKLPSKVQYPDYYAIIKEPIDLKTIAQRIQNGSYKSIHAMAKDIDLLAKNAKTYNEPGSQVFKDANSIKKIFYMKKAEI
Sequence of BRD3-BD1 (Q15059 34-140): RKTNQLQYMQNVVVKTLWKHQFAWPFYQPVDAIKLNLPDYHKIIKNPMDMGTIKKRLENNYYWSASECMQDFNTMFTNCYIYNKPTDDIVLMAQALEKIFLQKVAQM
T3 sequence (P51532 1453-1564): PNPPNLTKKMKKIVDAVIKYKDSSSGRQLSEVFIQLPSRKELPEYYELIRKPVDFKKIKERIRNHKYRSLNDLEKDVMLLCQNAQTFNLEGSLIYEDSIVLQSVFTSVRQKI
T1 sequence (P51531 1378-1506): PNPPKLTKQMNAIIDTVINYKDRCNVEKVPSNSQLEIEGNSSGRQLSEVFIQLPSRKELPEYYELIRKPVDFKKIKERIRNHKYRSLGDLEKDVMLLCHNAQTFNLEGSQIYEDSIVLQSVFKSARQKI
Sequence of BRD2-BD2 (P25440 344-453): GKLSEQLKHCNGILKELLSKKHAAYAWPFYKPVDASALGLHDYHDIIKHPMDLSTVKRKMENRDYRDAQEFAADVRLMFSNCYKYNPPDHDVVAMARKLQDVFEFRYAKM
Sequence of CREBBP (Q92793 1085-1192): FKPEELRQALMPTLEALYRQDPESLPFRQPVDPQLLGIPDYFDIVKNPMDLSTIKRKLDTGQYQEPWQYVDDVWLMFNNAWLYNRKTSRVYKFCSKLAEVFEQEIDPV
Sequence of p300 (Q09472 1049-1156): as the sequence (Q92793 1085-1192) above, with N47S, V73I, F93Y, A98S counted along it
Sequence of BRD3-BD2 (Q15059 306-415): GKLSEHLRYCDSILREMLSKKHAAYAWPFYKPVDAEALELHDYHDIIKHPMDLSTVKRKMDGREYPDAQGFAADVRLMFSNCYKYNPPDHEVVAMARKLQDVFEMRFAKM
Sequence of CECR2 (Q9BXF3 434-538): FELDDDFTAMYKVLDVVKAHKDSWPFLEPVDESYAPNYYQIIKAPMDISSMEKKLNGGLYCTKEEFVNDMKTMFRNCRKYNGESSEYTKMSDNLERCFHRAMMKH
Sequence of BRD7 (Q9NPI1 131-235): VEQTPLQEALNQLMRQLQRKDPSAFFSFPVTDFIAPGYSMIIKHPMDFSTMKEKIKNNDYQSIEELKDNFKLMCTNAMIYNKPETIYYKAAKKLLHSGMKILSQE
Sequence of TRIM33A (Q9UPN9 957-1080): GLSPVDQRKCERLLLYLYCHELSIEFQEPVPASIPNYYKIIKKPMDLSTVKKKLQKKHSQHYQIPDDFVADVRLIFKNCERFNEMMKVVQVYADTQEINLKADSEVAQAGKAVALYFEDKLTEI
Sequence of PCAF (Q92831 723-827): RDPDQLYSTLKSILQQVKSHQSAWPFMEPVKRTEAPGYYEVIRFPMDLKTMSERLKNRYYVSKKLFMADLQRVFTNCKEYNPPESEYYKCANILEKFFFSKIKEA
Sequence of PBRM1-BD5 (Q86U86 653-763): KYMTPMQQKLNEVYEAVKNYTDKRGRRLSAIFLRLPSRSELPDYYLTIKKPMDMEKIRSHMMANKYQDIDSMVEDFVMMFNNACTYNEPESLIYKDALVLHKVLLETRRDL
Procedure for PBRM1-BD5: as §3

As to `Cc1cccc(C2NC(=O)c3c(Cl)cccc3N2)c1C` (centres unmarked) [Compound 25, 5-Chloro-2-(2,3-dimethylphenyl)-2,3-dihydroquinazolin-4(1H)-one], on ASH1L, the “ASH1L ΔTm” value is −0.8 °C. For the same molecule, the “BRD2-BD2 ΔTm” value on BRD2-BD2 amounted to 0.2 °C. The “BRD3-BD1 ΔTm” value at BRD3-BD1 stood at 0.4 °C. Moreover, the “BRD3-BD2 ΔTm” value on BRD3-BD2 came to 0.4 °C. Besides, the “BRD4-BD1 ΔTm” value on BRD4-BD1 came out at 0.6 °C. Moreover, on BRD4-BD2, the “BRD4-BD2 ΔTm” value is −4.2 °C. Further, on BRD7, the “BRD7 ΔTm” value was determined as 0.0 °C. The “BRDT-BD1 ΔTm” value at BRDT-BD1 was found to be 0.1 °C. Besides, the “CECR2 ΔTm” value on CECR2 amounted to 0.8 °C. Further, the “CREBBP ΔTm” value at CREBBP was determined as 0.6 °C. Further, the “PCAF ΔTm” value at PCAF is 0.1 °C. Besides, on SMARCA2 [1], the “SMARCA2 ΔTm” value was 0.0 °C. For the same molecule, the “TRIM33A ΔTm” value at TRIM33A stood at 0.3 °C. Also, the “p300 ΔTm” value at p300 came to 0.6 °C. Moreover, the “growth inhibition of HEK293T cells” value in the series with HEK293T cells was “also inhibits the PC3, RWPE1, and HEK293T cells similarly”. Besides, the “growth inhibition of PC3 cells” value in the series on PC3 cells is “also inhibits the PC3, RWPE1, and HEK293T cells similarly”. Also, the “growth inhibition of RWPE1 cells” value in the series on RWPE-1 cells was “also inhibits the PC3, RWPE1, and HEK293T cells similarly”.
A word on the Kd: it is the equilibrium constant for the complex coming apart. Usually IC50 stands for the concentration at which inhibition is half-maximal. Low values mean higher potency, high ones lower potency. One may read the ΔTm as the change in melting temperature against a reference sample. Regarding `O=C1NC(c2c(F)cccc2Cl)Nc2ccccc21` (centres unmarked) [Compound 5, 2-(2-Chloro-6-fluorophenyl)-2,3-dihydroquinazolin-4(1H)-one], the dissociation constant (Kd) at PBRM1-BD2 [2] came out at 50 µM; at PBRM1-BD2 [2] (NMR titration, chemical shift perturbations vs fragment concentration, read-out: Kd) it was 45.3 ± 8.1 µM; at PBRM1-BD2 [5], 18.4 µM; at PBRM1-BD5 it was 179 µM. For the same molecule, the 50% inhibitory concentration (IC50) at PBRM1-BD2 [3] came out at 4.2 ± 1.3 µM. Further, the ΔTm at 100 µM on PBRM1-BD2 [4] stood at 1 ± 0.2 °C.
Take `Cc1cc(C)c(C2NC(=O)c3c(Cl)cccc3N2)c(C)c1` (centres unmarked) [Compound 22, 5-Chloro-2-(2,4,6-trimethylphenyl)-2,3-dihydroquinazolin-4(1H)-one]: the “solubility in the AlphaScreen assay” value in [6] is on record as “solubility issues”.
As to `Cc1ccccc1C1NC(=O)c2c(Cl)cccc2N1` (centres unmarked) [Compound 15, 5-Chloro-2-(2-methylphenyl)-2,3-dihydroquinazolin-4(1H)-one], on ASH1L, the “ASH1L ΔTm” value is −0.6 °C. For the same molecule, on BRD2-BD2, the “BRD2-BD2 ΔTm” value was found to be 0.6 °C. Besides, the “BRD3-BD1 ΔTm” value at BRD3-BD1 amounted to 0.3 °C. In addition, the “BRD3-BD2 ΔTm” value on BRD3-BD2 was 0.4 °C. For the same molecule, on BRD4-BD1, the “BRD4-BD1 ΔTm” value came out at 0.1 °C. In addition, the “BRD4-BD2 ΔTm” value at BRD4-BD2 is −3.3 °C. For the same molecule, on BRD7, the “BRD7 ΔTm” value turned out to be 0.2 °C. Further, on BRDT-BD1, the “BRDT-BD1 ΔTm” value was −0.7 °C. Moreover, the “CECR2 ΔTm” value on CECR2 is −0.5 °C. Besides, the “CREBBP ΔTm” value at CREBBP came to 0.5 °C. For the same molecule, the “PCAF ΔTm” value at PCAF came to 0.5 °C. Further, the “SMARCA4 ΔTm” value at SMARCA4 [7] is “did not exhibit detectable thermal stabilization or binding affinity”. On TRIM33A, the “TRIM33A ΔTm” value is 0.8 °C. Besides, the “p300 ΔTm” value at p300 is 0.2 °C. Besides, the “Kd SMARCA2” value at SMARCA2 [8] is listed as “did not exhibit detectable thermal stabilization or binding affinity”. For the same molecule, at SMARCA4 [9], the “Kd SMARCA4” value is “did not exhibit detectable thermal stabilization or binding affinity”. The “thermal stabilization against other tested bromodomains” value in series [10] is less than 1 °C.
